Assay results: patent US7745619B2, “Vinca derivatives” (priority 2003, dated 2010)

How the values were obtained:
[1] = system: HS 578T; assay: NCI 60-cell line growth inhibition assay: HS 578T; format: cell-based; settings: Homo sapiens, Hs-578T
[2] = system: A549/ATCC; assay: NCI 60-cell line growth inhibition assay: A549/ATCC; format: cell-based; settings: Homo sapiens, A549
[3] = system: OVCAR-8; assay: NCI 60-cell line growth inhibition assay: OVCAR-8; format: cell-based; settings: Homo sapiens
[4] = system: 786-0; assay: NCI 60-cell line growth inhibition assay: 786-0; format: cell-based; settings: Homo sapiens
[5] = system: HOP-62; assay: NCI 60-cell line growth inhibition assay: HOP-62; format: cell-based; settings: Homo sapiens
[6] = system: MOLT-4; assay: NCI 60-cell line growth inhibition assay: MOLT-4; format: cell-based; settings: Homo sapiens
[7] = system: SF-268; assay: NCI 60-cell line growth inhibition assay: SF-268; format: cell-based; settings: Homo sapiens, CNS
From the text: (§1) The following data in Table 4 summarize the growth inhibition properties of several compounds of the present invention against 60-human transformed cell lines.

[8] = system: COLO 205; assay: NCI 60-cell line growth inhibition assay: COLO 205; format: cell-based; settings: Homo sapiens
[9] = system: SF-539; assay: NCI 60-cell line growth inhibition assay: SF-539; format: cell-based; settings: Homo sapiens
[10] = system: KM12; assay: NCI 60-cell line growth inhibition assay: KM12; format: cell-based; settings: Homo sapiens
[11] = system: DU-145; assay: NCI 60-cell line growth inhibition assay: DU-145; format: cell-based; settings: Homo sapiens
[12] = system: TK-10; assay: NCI 60-cell line growth inhibition assay: TK-10; format: cell-based; settings: Homo sapiens
[13] = system: HCT-116; assay: NCI 60-cell line growth inhibition assay: HCT-116; format: cell-based; settings: Homo sapiens
[14] = system: NCI-H460; format: cell-based; settings: Homo sapiens
[15] = system: UACC-62; assay: NCI 60-cell line growth inhibition assay: UACC-62; format: cell-based; settings: Homo sapiens
[16] = system: SK-OV-3; assay: NCI 60-cell line growth inhibition assay: SK-OV-3; format: cell-based; settings: Homo sapiens
[17] = system: HT29; assay: NCI 60-cell line growth inhibition assay: HT29; format: cell-based; settings: Homo sapiens, HT-29
[18] = system: SK-MEL-5; assay: NCI 60-cell line growth inhibition assay: SK-MEL-5; format: cell-based; settings: Homo sapiens
[19] = system: SN12C; assay: NCI 60-cell line growth inhibition assay: SN12C; format: cell-based; settings: Homo sapiens
[20] = system: EKVX; assay: NCI 60-cell line growth inhibition assay: EKVX; format: cell-based; settings: Homo sapiens
[21] = system: NCI-H522; format: cell-based; settings: Homo sapiens
[22] = system: CAKI-1; assay: NCI 60-cell line growth inhibition assay: CAKI-1; format: cell-based; settings: Homo sapiens
[23] = system: UACC-257; assay: NCI 60-cell line growth inhibition assay: UACC-257; format: cell-based; settings: Homo sapiens
[24] = system: IGROV1; assay: NCI 60-cell line growth inhibition assay: IGROV1; format: cell-based; settings: Homo sapiens, IGROV-1, Ovarian
From the text: as §1

[25] = system: MDA-MB-435; assay: NCI 60-cell line growth inhibition assay: MDA-MB-435; format: cell-based; settings: Homo sapiens
[26] = system: SF-295; assay: NCI 60-cell line growth inhibition assay: SF-295; format: cell-based; settings: Homo sapiens
[27] = system: HOP-92; assay: NCI 60-cell line growth inhibition assay: HOP-92; format: cell-based; settings: Homo sapiens
[28] = system: M14; assay: NCI 60-cell line growth inhibition assay: M14; format: cell-based; settings: Homo sapiens
[29] = system: MCF7; assay: NCI 60-cell line growth inhibition assay: MCF7; format: cell-based; settings: Homo sapiens
[30] = system: LOX IMVI; assay: NCI 60-cell line growth inhibition assay: LOX IMVI; format: cell-based; settings: Homo sapiens
[31] = system: OVCAR-3; assay: NCI 60-cell line growth inhibition assay: OVCAR-3; format: cell-based; settings: Homo sapiens
[32] = system: RPMI-8226; assay: NCI 60-cell line growth inhibition assay: RPMI-8226; format: cell-based, human
From the text: as §1

[33] = system: PC-3; assay: NCI 60-cell line growth inhibition assay: PC-3; format: cell-based; settings: Homo sapiens
[34] = system: NCI/ADR-RES; format: cell-based; settings: Homo sapiens
[35] = system: ACHN; assay: NCI 60-cell line growth inhibition assay: ACHN; format: cell-based; settings: Homo sapiens
[36] = system: SW-620; assay: NCI 60-cell line growth inhibition assay: SW-620; format: cell-based; settings: Homo sapiens
[37] = system: U251; assay: NCI 60-cell line growth inhibition assay: U251; format: cell-based; settings: Homo sapiens, U-251
[38] = system: CCRF-CEM; assay: NCI 60-cell line growth inhibition assay: CCRF-CEM; format: cell-based; settings: Homo sapiens, Leukemia
From the text: as §1

[39] = system: HCC-2998; assay: NCI 60-cell line growth inhibition assay: HCC-2998; format: cell-based; settings: Homo sapiens, HCC 2998
[40] = system: MDA-MB-231/ATCC; assay: NCI 60-cell line growth inhibition assay: MDA-MB-231/ATCC; format: cell-based; settings: Homo sapiens, MDA-MB-231
[41] = system: SNB-19; assay: NCI 60-cell line growth inhibition assay: SNB-19; format: cell-based; settings: Homo sapiens
[42] = system: MCF-7 cells; assay: MCF-7 GI50 determination (crystal violet growth inhibition); format: cell-based, human; settings: Homo sapiens, MCF7, 96 h, read-out: MCF-7 Cells GI50 (nM)
Summary of the method: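 MCF-7 cells seeded at 2×10^4 cells/well, grown 24 h drug-free, then exposed to 10-fold compound dilutions for 4 days. Glutaraldehyde-fixed cells stained with crystal violet, absorbance read at 570 nm; GI=100×(T/T0) against day-0 control OD, GI50 from growth inhibition versus concentration plots.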

[43] = Homo sapiens, Leukemia, RPMI-8226

## CC[C@]1(O)C[C@H]2CN(CCc3c([nH]c4ccc(C#Cc5ccccc5)cc34)[C@@](C(=O)OC)(c3cc4c(cc3OC)N(C)[C@H]3[C@@](O)(C(=O)OC)[C@H](OC(C)=O)[C@]5(CC)C=CCN6CC[C@]43[C@@H]65)C2)C1 [Example 19, 12′-(2-phenylethynyl) vinblastine]
[1]
  GI50: 1850 nM
[2]
  GI50: 37300 nM
[3]
  GI50: 32200 nM
[4]
  GI50: 889 nM
[5]
  GI50: 571 nM
[6]
  GI50: 196 nM
[7]
  GI50: 731 nM
[8]
  GI50: 1190 nM
[9]
  GI50: 1790 nM
[10]
  GI50: 206 nM
[11]
  GI50: 2460 nM
[12]
  GI50: 313 nM
[13]
  GI50: 300 nM
[14]
  GI50: 353 nM
[15]
  GI50: 2040 nM
[16]
  GI50: 1880 nM
[17]
  GI50: 423 nM
[18]
  GI50: 757 nM
[19]
  GI50: 2470 nM
[20]
  GI50: 2.79 µM
[21]
  GI50: 1810 nM
[22]
  GI50: 557 nM
[23]
  GI50: 46 µM
[24]
  GI50: 2210 nM
[25]
  GI50: 60.5 nM
[26]
  GI50: 293 nM
[27]
  GI50: 0.335 µM
[28]
  GI50: 260 nM
[29]
  GI50: 396 nM
[30]
  GI50: > 100000 nM
[31]
  GI50: 207 nM
[32]; [43]
  GI50: 252 nM
[33]
  GI50: 280 nM
[34]
  GI50: 1440 nM
[35]
  GI50: 22000 nM
[36]
  GI50: 1770 nM
[37]
  GI50: 9.97 µM
[38]
  GI50: 263 nM
[39]
  GI50: 182 nM
[40]
  GI50: 2020 nM
[41]
  GI50: 1790 nM
[42]
  GI50: 800 nM

## CCCC(=O)/C=C/c1ccc2[nH]c3c(c2c1)CCN1C[C@H](C[C@@](O)(CC)C1)C[C@]3(C(=O)OC)c1cc2c(cc1OC)N(C)[C@H]1[C@@](O)(C(=O)OC)[C@H](OC(C)=O)[C@]3(CC)C=CCN4CC[C@]21[C@@H]43 [Example 29, 12′-(3-oxohex-1-enyl)vinblastine]
[1]
  GI50: 628 nM
[2]
  GI50: 28.7 nM
[3]
  GI50: 22.6 nM
[4]
  GI50: < 10 nM
[5]
  GI50: < 10 nM
[6]
  GI50: 11 nM
[7]
  GI50: 901 nM
[8]
  GI50: < 10 nM
[9]
  GI50: 21 nM
[10]
  GI50: 212 nM
[11]
  GI50: 15.2 nM
[12]
  GI50: 3240 nM
[13]
  GI50: < 10 nM
[14]
  GI50: 176 nM
[15]
  GI50: < 10 nM
[16]
  GI50: 16.9 nM
[17]
  GI50: < 10 nM
[18]
  GI50: 420 nM
[19]
  GI50: < 10 nM
[20]
  GI50: 10.8 µM
[21]
  GI50: 31.4 nM
[22]
  GI50: 1200 nM
[23]
  GI50: 19.3 µM
[24]
  GI50: 1710 nM
[25]
  GI50: 34.3 nM
[26]
  GI50: 568 nM
[27]
  GI50: 9.93 µM
[28]
  GI50: < 10 nM
[29]
  GI50: 10.5 nM
[30]
  GI50: < 10 nM
[31]
  GI50: 59.7 nM
[32]; [43]
  GI50: 14.1 nM
[33]
  GI50: 44.2 nM
[34]
  GI50: 18100 nM
[35]
  GI50: 93.7 nM
[36]
  GI50: 1300 nM
[37]
  GI50: < 0.01 µM
[38]
  GI50: 28.8 nM
[39]
  GI50: < 10 nM
[40]
  GI50: < 10 nM
[41]
  GI50: < 10 nM
[42]
  GI50: 515 nM

## CCC1=C[C@H]2CN(CCc3c([nH]c4ccc(Br)cc34)[C@@](C(=O)OC)(c3cc4c(cc3OC)N(C)[C@H]3[C@@](O)(C(=O)OC)[C@H](OC(C)=O)[C@]5(CC)C=CCN6CC[C@]43[C@@H]65)C2)C1 [Example 97, 12′-bromoanhydro vinblastine]
[1]
  GI50: < 10 nM
[2]
  GI50: < 10 nM
[3]
  GI50: < 10 nM
[4]
  GI50: < 10 nM
[5]
  GI50: < 10 nM
[6]
  GI50: < 10 nM
[7]
  GI50: < 10 nM
[8]
  GI50: < 10 nM
[9]
  GI50: < 10 nM
[10]
  GI50: < 10 nM
[11]
  GI50: < 10 nM
[12]
  GI50: < 10 nM
[13]
  GI50: < 10 nM
[14]
  GI50: < 10 nM
[15]
  GI50: < 10 nM
[16]
  GI50: < 10 nM
[17]
  GI50: < 10 nM
[18]
  GI50: < 10 nM
[19]
  GI50: < 10 nM
[20]
  GI50: 10.2 µM
[21]
  GI50: < 10 nM
[22]
  GI50: 589 nM
[23]
  GI50: 3.95 µM
[24]
  GI50: < 10 nM
[25]
  GI50: < 10 nM
[26]
  GI50: < 10 nM
[27]
  GI50: 12.2 µM
[28]
  GI50: < 10 nM
[29]
  GI50: < 10 nM
[30]
  GI50: < 10 nM
[31]
  GI50: < 10 nM
[32]; [43]
  GI50: < 10 nM
[32]; Renal, RPMI-8226 (last line of Table 4, repeats the Leukemia line)
  GI50: < 10 nM
[33]
  GI50: < 10 nM
[34]
  GI50: 77.9 nM
[35]
  GI50: 64.1 nM
[36]
  GI50: < 10 nM
[37]
  GI50: < 0.01 µM
[38]
  GI50: < 10 nM
[39]
  GI50: < 10 nM
[40]
  GI50: < 10 nM
[41]
  GI50: < 10 nM
[42]
  GI50: 50 nM
